From patent US10201564B2, “Methods of using inhaled nitric oxide gas for treatment of acute respiratory distress syndrome in children” (Mallinckrodt Hospital Products IP Limited, priority 2014, dated 2019)

System: pediatric subjects with acute hypoxemic respiratory failure (AHRF)
Assay: Pediatric AHRF study: adverse events, serious adverse events, deaths, discontinuations
Assay type: in vivo, human
Conditions: 5 ppm
Description: This was a prospective, multicenter, randomized, double-blind, placebo-controlled, parallel-group study of the safety and efficacy of inhaled nitric oxide in pediatric subjects with acute hypoxemic respiratory failure (AHRF). The subjects were randomized to receive either 5 ppm inhaled nitric oxide or placebo.
Nitric Oxide for inhalation at 5 ppm was administered continuously into the inspiratory limb of the ventilator circuit in mechanically ventilated subjects using a blinded version of the INOvent® delivery system.
Subjects received 100% treatment gas (nitric oxide 5 ppm or placebo [nitrogen gas]) until Day 28 or extubation, whichever occurred first.
This was a prospective, multicenter, randomized, double-blind, placebo-controlled, Phase III study to assess the effects of nitric oxide for inhalation in the treatment of acute hypoxic respiratory failure (AHRF) in pediatric subjects. The study population consisted of male and female pediatric subjects, aged 44 weeks postconceptional age to 16 years age, who were admitted to the pediatric intensive care unit (PICU) and who required intubation because of AHRF. The inclusion/exclusion criteria are described in the Patients section below.
Standardized ventilatory management and weaning procedures were used. Ventilatory management was used based on an “open lung approach” using positive end-expiratory pressure (PEEP) to increase lung volume and limiting tidal volumes to reduce plateau pressures. Subjects received nitric oxide for inhalation at 5 ppm or placebo (100% Grade 5 nitrogen gas) into the inspiratory limb of the ventilator circuit using a blinded version of the INOvent® delivery system. The subjects were treated until Day 28 or extubation, whichever occurred first. Subjects were assessed daily using a spontaneous breathing trial, according to the institution's standard of care. Arterial blood gases (ABG), ventilator settings, methemoglobin, oxygenation index, systolic blood pressure, diastolic blood pressure, Pediatric Risk of Mortality (PRISM) III score, and subject positioning (prone or supine) were performed/recorded at specified times during the study. Selected centers also performed plasma cytokine assays, bronchoalveolar lavage fluid (BALF) assays, and a 6-month follow-up assessment.

[1] = AE not suspected related to study treatment
[2] = AE suspected related to study treatment
[3] = AE with death as outcome, not suspected related to treatment

[N]=O [Nitric Oxide, nitric oxide]
Subdural hematoma [1]: 0 (0.0) n (%)
Thrombocythemia [1]: 1 (3.8%) n (%)
Thrombocytopenia [1]: 0 (0.0) n (%)
Tracheitis [1]: 2 (7.7%) n (%)
Unevaluable event [1]: 2 (7.7%) n (%)
Urinary tract infection [1]: 1 (3.8%) n (%)
Urinary tract infection, fungal [1]: 1 (3.8%) n (%)
Urine output decreased [1]: 1 (3.8%) n (%)
White blood cell count increased [1]: 0 (0.0) n (%)
Abdominal distension [2]: 0 (0.0) n (%)
Acidosis [2]: 0 (0.0) n (%)
Agitation [2]: 0 (0.0) n (%)
Anemia [2]: 0 (0.0) n (%)
Apnea [2]: 0 (0.0) n (%)
Arrhythmia [2]: 0 (0.0) n (%)
Ascites [2]: 0 (0.0) n (%)
Bacteremia [2]: 0 (0.0) n (%)
Bacteria, blood [2]: 0 (0.0) n (%)
Bacteria, sputum [2]: 0 (0.0) n (%)
Bladder distension [2]: 0 (0.0) n (%)
Bradycardia [2]: 0 (0.0) n (%)
Brain edema [2]: 0 (0.0) n (%)
Bronchoalveolar lavage [2]: 0 (0.0) n (%)
C-reactive protein increased [2]: 0 (0.0) n (%)
Cardiac arrest [2]: 0 (0.0) n (%)
Cerebral artery occlusion [2]: 0 (0.0) n (%)
Chest tube insertion [2]: 0 (0.0) n (%)
Deep vein thrombosis [2]: 0 (0.0) n (%)
Device failure [2]: 0 (0.0) n (%)
Diabetic ketoacidosis [2]: 0 (0.0) n (%)
Diarrhea [2]: 0 (0.0) n (%)
Disseminated intravascular coagulation [2]: 0 (0.0) n (%)
Empyema [2]: 0 (0.0) n (%)
Feeding disorder [2]: 0 (0.0) n (%)
Fungemia [2]: 0 (0.0) n (%)
Fungus culture positive [2]: 0 (0.0) n (%)
Fungus urine test positive [2]: 0 (0.0) n (%)
Gastrointestinal hemorrhage [2]: 0 (0.0) n (%)
Generalized edema [2]: 0 (0.0) n (%)
Grangrene [2]: 0 (0.0) n (%)
Hematuria [2]: 0 (0.0) n (%)
Hemoglobinemia [2]: 0 (0.0) n (%)
Hemolytic anemia [2]: 0 (0.0) n (%)
Hemopneumothorax [2]: 0 (0.0) n (%)
Hemorrhage [2]: 0 (0.0) n (%)
Hemothorax [2]: 0 (0.0) n (%)
Hepatic failure [2]: 0 (0.0) n (%)
Hepatosplenomegaly [2]: 0 (0.0) n (%)
Hyperammonemia [2]: 0 (0.0) n (%)
Hypercalcemia [2]: 0 (0.0) n (%)
Hypercapnia [2]: 0 (0.0) n (%)
Hyperchloremia [2]: 0 (0.0) n (%)
Hyperglycemia [2]: 0 (0.0) n (%)
Hyperkalemia [2]: 0 (0.0) n (%)
Hyperlipidemia [2]: 0 (0.0) n (%)
Hypernatremia [2]: 0 (0.0) n (%)
Hypertension [2]: 0 (0.0) n (%)
Hypocalcemia [2]: 0 (0.0) n (%)
Hypochloremia [2]: 0 (0.0) n (%)
Hypokalemia [2]: 0 (0.0) n (%)
Hypotension [2]: 0 (0.0) n (%)
Hypothermia [2]: 0 (0.0) n (%)
Hypoxia [2]: 0 (0.0) n (%)
Intracranial pressure increased [2]: 0 (0.0) n (%)
Labile blood pressure [2]: 0 (0.0) n (%)
Leukocytosis [2]: 0 (0.0) n (%)
Lung infection, pseudomonal [2]: 0 (0.0) n (%)
Medical device removal [2]: 0 (0.0) n (%)
Metabolic acidosis [2]: 0 (0.0) n (%)
Metabolic alkalosis [2]: 0 (0.0) n (%)
Multi-organ failure [2]: 0 (0.0) n (%)
Ocular icterus [2]: 0 (0.0) n (%)
Oliguria [2]: 0 (0.0) n (%)
Oxygen saturation decreased [2]: 0 (0.0) n (%)
Pancreatitis [2]: 0 (0.0) n (%)
Pleural effusion [2]: 0 (0.0) n (%)
Pneumomediastinum [2]: 0 (0.0) n (%)
Pneumonia [2]: 0 (0.0) n (%)
Pneumonia, aspergillus [2]: 0 (0.0) n (%)
Pneumonia, staphylococcal [2]: 0 (0.0) n (%)
Pneumothorax [2]: 0 (0.0) n (%)
Pruritus [2]: 0 (0.0) n (%)
Pseudomonal sepsis [2]: 0 (0.0) n (%)
Pulmonary hemorrhage [2]: 0 (0.0) n (%)
Pulmonary hypertension [2]: 0 (0.0) n (%)
Pyrexia [2]: 0 (0.0) n (%)
Renal failure [2]: 0 (0.0) n (%)
Renal failure, acute [2]: 0 (0.0) n (%)
Renal impairment [2]: 0 (0.0) n (%)
Respiratory acidosis [2]: 0 (0.0) n (%)
Respiratory failure [2]: 0 (0.0) n (%)
Sepsis [2]: 0 (0.0) n (%)
Skin injury [2]: 0 (0.0) n (%)
Subdural hematoma [2]: 0 (0.0) n (%)
Thrombocythemia [2]: 0 (0.0) n (%)
Thrombocytopenia [2]: 0 (0.0) n (%)
Tracheitis [2]: 0 (0.0) n (%)
Unevaluable event [2]: 0 (0.0) n (%)
Urinary tract infection [2]: 0 (0.0) n (%)
Urinary tract infection, fungal [2]: 0 (0.0) n (%)
Urine output decreased [2]: 0 (0.0) n (%)
White blood cell count increased [2]: 0 (0.0) n (%)
Bradycardia [3]: 1 (3.8%) n (%)
Brain edema [3]: 0 (0.0) n (%)
Cardiac arrest [3]: 0 (0.0) n (%)
Diabetic ketoacidosis [3]: 0 (0.0) n (%)
Hemolytic anemia [3]: 0 (0.0) n (%)
